Experimental data published in ChEMBL document CHEMBL1201862, “PubChem BioAssay data set” (2004).
The source made the active and inactive calls.

Tests used:
Vero = assay: cells; assay type: functional; conditions: Chlorocebus sabaeus
[1] = target: Beta-2 adrenergic receptor (Homo sapiens, UniProt P07550); assay: ADRB2 activation measured by internalization – cell-based, FAP fluorogen, flow cytometry, cherry pick 1, dose response (AID 588763); assay type: functional
Protein skinhead-1 = target: T1, Protein skinhead-1 (Caenorhabditis elegans, UniProt P34707); assay type: functional
T1 sequence (P34707 whole entry): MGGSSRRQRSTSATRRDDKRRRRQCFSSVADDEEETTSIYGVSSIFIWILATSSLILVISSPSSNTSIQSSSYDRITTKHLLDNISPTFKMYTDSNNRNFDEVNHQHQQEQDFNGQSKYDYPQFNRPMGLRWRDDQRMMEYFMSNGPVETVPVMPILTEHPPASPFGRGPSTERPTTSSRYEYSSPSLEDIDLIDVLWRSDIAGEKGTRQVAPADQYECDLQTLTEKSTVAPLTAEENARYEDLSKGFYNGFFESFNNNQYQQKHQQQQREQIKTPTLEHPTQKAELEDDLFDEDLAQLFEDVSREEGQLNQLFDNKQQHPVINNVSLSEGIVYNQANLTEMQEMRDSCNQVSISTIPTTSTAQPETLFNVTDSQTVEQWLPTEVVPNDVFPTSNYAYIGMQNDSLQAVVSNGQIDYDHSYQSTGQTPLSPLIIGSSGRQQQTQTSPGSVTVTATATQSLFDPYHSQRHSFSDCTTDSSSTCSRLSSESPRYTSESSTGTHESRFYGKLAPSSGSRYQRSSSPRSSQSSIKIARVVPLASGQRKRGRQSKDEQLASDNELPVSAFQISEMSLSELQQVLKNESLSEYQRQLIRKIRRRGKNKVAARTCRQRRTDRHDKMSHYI

[2] = cytotoxicity toward MDA-MB-231 breast cancer cells – cell-based, CellTiter-Glo luminescence, cherry-pick, cytotoxicity control for RAD54 inhibitor project, dose response (AID 651692); assay type: functional
[3] = target: T2, DNA repair and recombination protein RAD54-like (Homo sapiens, UniProt Q92698); assay: RAD54 Holliday junction migration blockers – biochemical, fluorescence, cherry-picked samples, dose series, confirmation (AID 651657); assay type: functional
T2 sequence (Q92698 whole entry): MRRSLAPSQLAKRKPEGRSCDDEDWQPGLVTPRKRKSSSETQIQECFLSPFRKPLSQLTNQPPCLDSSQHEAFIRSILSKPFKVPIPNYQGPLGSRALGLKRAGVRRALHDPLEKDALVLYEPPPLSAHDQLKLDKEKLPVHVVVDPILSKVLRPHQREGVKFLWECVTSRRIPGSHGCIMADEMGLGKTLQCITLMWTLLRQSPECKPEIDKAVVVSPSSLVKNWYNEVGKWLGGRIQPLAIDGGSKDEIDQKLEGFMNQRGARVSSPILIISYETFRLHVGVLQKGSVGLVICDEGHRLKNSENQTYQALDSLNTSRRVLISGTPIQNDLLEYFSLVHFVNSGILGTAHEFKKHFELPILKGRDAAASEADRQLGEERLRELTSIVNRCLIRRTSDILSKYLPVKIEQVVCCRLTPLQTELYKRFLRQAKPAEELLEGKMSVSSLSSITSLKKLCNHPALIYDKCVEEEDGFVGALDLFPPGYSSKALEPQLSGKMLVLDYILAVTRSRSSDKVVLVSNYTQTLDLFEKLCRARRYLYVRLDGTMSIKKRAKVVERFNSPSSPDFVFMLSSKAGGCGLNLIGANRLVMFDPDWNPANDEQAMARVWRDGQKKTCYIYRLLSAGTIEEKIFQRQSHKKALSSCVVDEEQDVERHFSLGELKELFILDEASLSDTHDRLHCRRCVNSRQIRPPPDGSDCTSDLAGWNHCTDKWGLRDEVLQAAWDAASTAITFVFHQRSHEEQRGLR

[4] = target: T3, DNA repair protein RAD52 homolog (Homo sapiens, UniProt P43351); assay type: functional, biochemical
T3 sequence (P43351 whole entry): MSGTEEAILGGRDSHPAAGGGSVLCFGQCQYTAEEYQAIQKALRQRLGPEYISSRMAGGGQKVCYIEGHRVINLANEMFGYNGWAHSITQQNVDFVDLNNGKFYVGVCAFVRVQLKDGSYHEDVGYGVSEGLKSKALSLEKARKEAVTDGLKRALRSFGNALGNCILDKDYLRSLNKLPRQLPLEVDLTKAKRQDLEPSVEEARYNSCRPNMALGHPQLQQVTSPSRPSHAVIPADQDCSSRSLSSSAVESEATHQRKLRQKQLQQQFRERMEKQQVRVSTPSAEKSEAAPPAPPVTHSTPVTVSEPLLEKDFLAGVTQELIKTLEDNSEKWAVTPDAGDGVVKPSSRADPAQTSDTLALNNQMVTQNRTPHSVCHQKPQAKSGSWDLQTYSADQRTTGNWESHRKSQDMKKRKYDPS

[5] = target: Adenosylmethionine-8-amino-7-oxononanoate aminotransferase (Mycobacterium tuberculosis, UniProt P9WQ81); assay: Mycobacterium tuberculosis BioA enzyme inhibitor Measured in Biochemical System Using Plate Reader - 2163-02_Inhibitor_Dose_CherryPick_Activity.; assay type: functional, Mycobacterium tuberculosis UT205
Interleukin-8 [6] = target: T4, Interleukin-8 (Homo sapiens, UniProt P10145); assay: Dose Response confirmation of uHTS small molecule hits for cystic fibrosis induced NFkb Inhibitors in a TNFa-induced IL8 counterscreen.; assay type: functional; conditions: read-out: IC50_Mean
Interleukin-8 [7] = target: T4, Interleukin-8; assay: Dose Response confirmation of uHTS small molecule hits for cystic fibrosis induced NFkb Inhibitors in a PAF-induced IL8 counterscreen.; assay type: functional; conditions: read-out: IC50_Mean
[8] = target: Tyrosine-protein phosphatase non-receptor type 11 (Homo sapiens, UniProt Q06124); assay: PTPN11 enzyme inhibitors – biochemical, selectivity assay for STEP inhibitor project, dose response (AID 602367); assay type: functional; conditions: read-out: IC50_Mean
[9] = target: Tyrosine-protein phosphatase non-receptor type 5 (Homo sapiens, UniProt P54829); assay: PTPN5 enzyme inhibition – biochemical, fluorescence intensity, uHTS hits, confirmation (AID 602372); assay type: functional; conditions: read-out: IC50_Mean
[10] = target: Dual specificity protein phosphatase 3 (Homo sapiens, UniProt P51452); assay: VHR phosphatase inhibition, dose response, selectivity assay for STEP inhibitor project, biochemical (AID 602374); assay type: functional; conditions: read-out: IC50_Mean
[11] = NIH-3T3 fibroblast cytotoxicity, dose response, cytotoxicity control, cell-based, fluorescence, Alamar Blue, secondary assay (AID 2327); assay type: functional;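 note: NIH-3T3 mouse fibroblasts cultured with fluconazole at 8 µg/mL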
[12] = test system: Streptococcus sp. 'group A'; assay: Streptococcus pyogenes SK(-)GAS viability under kanamycin – luminescence, BacTiterGlo, confirmation, counter-screen for streptokinase expression inhibitor project, dose response (AID 1900); assay type: functional, organism-based
BJ [13] = assay: BJ-TERT fibroblast viability loss – cell-based, RAS-independent, luminescence, dose response (AID 1933); assay type: functional; conditions: Homo sapiens
[14] = target: Luciferin 4-monooxygenase (Photinus pyralis, UniProt P08659); assay: Counter Screen for Luciferase-based Assay Positives. [Related pubchem assays: 620, 618, 411 ]
cells [15] = assay type: functional, cell-based
Streptokinase A = target: T5, Streptokinase A (Streptococcus pyogenes serotype M1, UniProt P10520); assay: viability-normalized secreted streptokinase activity reduction – plasminogen activation absorbance, OD405, dose response (AID 1914); assay type: functional, Streptococcus pyogenes M1 GAS;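 note: secreted streptokinase activity via plasminogen activation per viability signal from cell pellet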
T5 sequence (P10520 whole entry): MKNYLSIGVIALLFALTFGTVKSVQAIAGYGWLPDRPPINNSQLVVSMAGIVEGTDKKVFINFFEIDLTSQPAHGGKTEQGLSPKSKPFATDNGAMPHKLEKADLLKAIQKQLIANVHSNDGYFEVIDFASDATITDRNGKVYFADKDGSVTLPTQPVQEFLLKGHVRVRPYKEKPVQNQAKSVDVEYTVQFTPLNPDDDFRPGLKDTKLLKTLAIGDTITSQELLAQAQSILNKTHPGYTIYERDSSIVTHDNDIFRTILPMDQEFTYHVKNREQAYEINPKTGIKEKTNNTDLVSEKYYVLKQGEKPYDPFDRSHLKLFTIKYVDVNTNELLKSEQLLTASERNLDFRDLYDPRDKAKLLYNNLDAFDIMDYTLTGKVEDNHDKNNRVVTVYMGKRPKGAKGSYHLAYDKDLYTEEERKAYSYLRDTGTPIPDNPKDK

BJ [16] = assay: cells; assay type: functional, cell-based; conditions: Homo sapiens
[17] = fluconazole-exposed Candida albicans growth modulators – fluorescence, retest, confirmation (AID 2467); assay type: functional, cell-based
cells [18] = assay type: functional, cell-based; remark: listed apart in the source
[19] = viability of PTEN-deleted HCT116 cells – cell-based, HCT116 PTEN knockout, dose response (AID 1047); assay type: functional;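 note: HCT116 colon tumor cells with PTEN knocked out; cells exposed to compound for 60 hours before readout; potency for loss of cell viability measured by luminescence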
[20] = target: T6, Serine/threonine-protein phosphatase (Candida dubliniensis (strain CD36 / CBS 7987 / NCPF 3949 / NRRLY-17841) (Yeast), UniProt B9W6M3); assay: blockers of CaCl2-induced CDRE-lacZ signaling – S. cerevisiae, luminescence, secondary, dose response (AID 2388); assay type: functional, cell-based;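 note: yeast reporter cells carrying a calcineurin-responsive lacZ construct stimulated with calcium chloride; luminescent beta-galactosidase reporter signal in whole cells rather than isolated phosphatase activity; potency for inhibition where a drop in reporter signal means calcineurin blockade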
T6 sequence (B9W6M3 whole entry): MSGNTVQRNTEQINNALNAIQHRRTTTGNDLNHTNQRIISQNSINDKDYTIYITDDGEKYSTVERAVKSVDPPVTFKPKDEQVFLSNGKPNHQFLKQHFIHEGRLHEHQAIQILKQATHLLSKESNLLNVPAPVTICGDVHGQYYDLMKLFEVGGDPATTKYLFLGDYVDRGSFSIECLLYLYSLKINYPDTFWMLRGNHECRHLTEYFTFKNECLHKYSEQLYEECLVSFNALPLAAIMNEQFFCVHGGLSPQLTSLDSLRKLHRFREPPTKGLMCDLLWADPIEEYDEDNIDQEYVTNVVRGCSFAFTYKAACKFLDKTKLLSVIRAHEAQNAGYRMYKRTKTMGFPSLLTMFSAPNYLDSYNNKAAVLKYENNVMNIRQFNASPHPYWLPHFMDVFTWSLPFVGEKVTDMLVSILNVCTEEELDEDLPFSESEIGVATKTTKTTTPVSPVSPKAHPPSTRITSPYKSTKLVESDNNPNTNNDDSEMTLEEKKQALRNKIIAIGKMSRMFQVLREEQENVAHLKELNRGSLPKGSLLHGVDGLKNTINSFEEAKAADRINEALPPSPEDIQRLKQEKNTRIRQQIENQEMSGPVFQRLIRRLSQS

HT-1080 = assay: HT1080 cell viability loss – fluorescence readout (AID 620); assay type: functional, cell-based; conditions: Homo sapiens
[21] = viability of HCT116 lacking mutant beta-catenin – cell-based, human colon tumor, dose response (AID 1045); assay type: functional;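 note: HCT116 colon tumor cells with beta catenin knocked out; cells exposed to compound for 60 hours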
BJ [22] = assay: BJ-TERT-LT-ST fibroblast viability loss – cell-based, RAS-independent, luminescence, dose response (AID 1935); assay type: functional; conditions: Homo sapiens;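 note: BJ fibroblasts immortalized with TERT plus LT and ST oncogenes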
[23] = DRD fibroblast viability loss – cell-based, non-viral oncogenic, luminescence, dose response (AID 1934); assay type: functional; conditions: Homo sapiens
Streptococcus = assay: GAS UMAA2166 growth inhibition – luminescence, BacTiterGlo, counter-screen for streptokinase expression inhibitor project, dose response (AID 1915); assay type: functional, organism-based;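 note: potency for reduction of bacterial viability or growth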
Nonstructural protein 1 = Nonstructural protein 1 (Influenza A virus, UniProt Q194T2); assay type: functional, Influenza A virus (A/California/07/2009(H1N1))
[24] = target: Heat shock protein HSP 90-alpha (Homo sapiens, UniProt P07900); assay type: functional, organism-based
[25] = target: ATP-dependent molecular chaperone HSP82 (Candida albicans (strain WO-1) (Yeast), UniProt C4YTQ8); assay: steroid-induced GRE reporter decrease in yeast – S. cerevisiae, luminescence, Hsp90 inhibitor project, dose response (AID 2400); assay type: functional, cell-based;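 note: beta-galactosidase luminescence from glucocorticoid response element reporter as proxy for Hsp90 function; inhibitor potency where signal loss means Hsp90 inhibition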
[26] = mammalian cell viability loss – Alamar Blue, dry powder, cytotoxicity control for antifungal single agent project, dose response (AID 602188); assay type: functional, cell-based
[27] = bead-based luminescence quenchers, dual-tagged ARNT – biochemical, AlphaScreen, cherry-pick, artefact control for ARNT-TACC3 interaction inhibitor project, dose response (AID 651705); assay type: functional;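 note: AlphaScreen bead proximity signal that flags compounds interfering with the detection technology; potency reflects signal decrease which marks the compound as an assay artifact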
[28] = viability of uninfected HEp-2 cells – cell-based, HTS, cytotoxicity control for RSV inhibitor project, dose response (AID 2410); assay type: functional; conditions: human respiratory syncytial virus
[29] = target: Mitochondrial peptide methionine sulfoxide reductase (Bos taurus, UniProt P54149); assay type: functional;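 note: absorbance read-out, biochemical high-throughput dose-response screen for MsrA inhibitors, confirmatory; recombinant bovine MsrA coupled to E. coli TrxB with NADPH and selenocystamine; potency is for inhibitors of MsrA activity on DMSO substrate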
Chain of Mitochondrial peptide methionine sulfoxide reductase (P54149 whole entry): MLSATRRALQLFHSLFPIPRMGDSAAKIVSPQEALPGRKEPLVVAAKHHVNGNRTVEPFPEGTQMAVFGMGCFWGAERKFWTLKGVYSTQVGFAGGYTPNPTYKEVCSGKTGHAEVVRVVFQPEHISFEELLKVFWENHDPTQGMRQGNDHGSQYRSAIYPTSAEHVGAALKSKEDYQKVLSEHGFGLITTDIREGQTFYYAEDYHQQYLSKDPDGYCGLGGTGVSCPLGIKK

T4 sequence (P10145 whole entry): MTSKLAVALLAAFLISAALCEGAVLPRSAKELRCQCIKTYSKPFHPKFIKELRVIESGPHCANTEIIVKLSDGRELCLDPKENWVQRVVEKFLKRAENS
Chain of Beta-2 adrenergic receptor (P07550 whole entry): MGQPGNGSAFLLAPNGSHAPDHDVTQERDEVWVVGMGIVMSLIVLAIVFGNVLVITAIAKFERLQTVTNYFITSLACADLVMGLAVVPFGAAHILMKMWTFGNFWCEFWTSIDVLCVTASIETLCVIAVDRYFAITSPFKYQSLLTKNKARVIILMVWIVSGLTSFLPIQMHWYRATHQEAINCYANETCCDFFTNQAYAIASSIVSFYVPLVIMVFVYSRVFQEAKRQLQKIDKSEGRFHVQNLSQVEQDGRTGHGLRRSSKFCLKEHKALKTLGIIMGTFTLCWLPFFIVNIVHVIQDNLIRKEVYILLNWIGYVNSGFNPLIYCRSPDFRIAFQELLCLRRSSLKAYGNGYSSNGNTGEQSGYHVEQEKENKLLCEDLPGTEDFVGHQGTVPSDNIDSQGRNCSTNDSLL
Chain of Nonstructural protein 1 (Q194T2 whole entry): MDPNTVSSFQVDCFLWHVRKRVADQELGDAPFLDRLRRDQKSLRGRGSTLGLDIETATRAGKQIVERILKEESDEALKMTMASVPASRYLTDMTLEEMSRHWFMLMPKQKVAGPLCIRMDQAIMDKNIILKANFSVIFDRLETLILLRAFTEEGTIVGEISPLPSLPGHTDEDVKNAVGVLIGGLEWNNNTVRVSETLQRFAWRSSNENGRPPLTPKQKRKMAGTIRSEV
Chain of Tyrosine-protein phosphatase non-receptor type 5 (P54829 whole entry): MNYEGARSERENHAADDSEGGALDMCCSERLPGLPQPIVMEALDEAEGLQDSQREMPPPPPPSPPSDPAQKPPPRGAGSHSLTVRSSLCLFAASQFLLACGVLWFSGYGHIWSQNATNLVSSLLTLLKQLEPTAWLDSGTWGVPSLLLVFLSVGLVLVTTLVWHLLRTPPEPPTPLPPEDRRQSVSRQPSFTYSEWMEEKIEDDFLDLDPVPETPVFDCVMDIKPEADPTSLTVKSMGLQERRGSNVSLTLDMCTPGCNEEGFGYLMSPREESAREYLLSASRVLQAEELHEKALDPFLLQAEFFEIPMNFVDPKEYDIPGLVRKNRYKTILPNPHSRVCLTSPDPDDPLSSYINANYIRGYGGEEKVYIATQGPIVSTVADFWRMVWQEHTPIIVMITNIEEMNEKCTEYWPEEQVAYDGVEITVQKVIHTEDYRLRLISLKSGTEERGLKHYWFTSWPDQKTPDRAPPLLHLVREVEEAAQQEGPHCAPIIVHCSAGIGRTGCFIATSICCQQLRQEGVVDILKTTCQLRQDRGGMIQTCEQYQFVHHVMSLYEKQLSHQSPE
Chain of Dual specificity protein phosphatase 3 (P51452 whole entry): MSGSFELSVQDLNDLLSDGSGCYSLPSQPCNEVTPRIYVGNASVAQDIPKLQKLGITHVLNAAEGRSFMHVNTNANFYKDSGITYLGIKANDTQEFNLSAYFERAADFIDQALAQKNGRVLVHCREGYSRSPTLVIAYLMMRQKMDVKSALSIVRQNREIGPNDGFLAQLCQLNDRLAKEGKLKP
Chain of Tyrosine-protein phosphatase non-receptor type 11 (Q06124 whole entry): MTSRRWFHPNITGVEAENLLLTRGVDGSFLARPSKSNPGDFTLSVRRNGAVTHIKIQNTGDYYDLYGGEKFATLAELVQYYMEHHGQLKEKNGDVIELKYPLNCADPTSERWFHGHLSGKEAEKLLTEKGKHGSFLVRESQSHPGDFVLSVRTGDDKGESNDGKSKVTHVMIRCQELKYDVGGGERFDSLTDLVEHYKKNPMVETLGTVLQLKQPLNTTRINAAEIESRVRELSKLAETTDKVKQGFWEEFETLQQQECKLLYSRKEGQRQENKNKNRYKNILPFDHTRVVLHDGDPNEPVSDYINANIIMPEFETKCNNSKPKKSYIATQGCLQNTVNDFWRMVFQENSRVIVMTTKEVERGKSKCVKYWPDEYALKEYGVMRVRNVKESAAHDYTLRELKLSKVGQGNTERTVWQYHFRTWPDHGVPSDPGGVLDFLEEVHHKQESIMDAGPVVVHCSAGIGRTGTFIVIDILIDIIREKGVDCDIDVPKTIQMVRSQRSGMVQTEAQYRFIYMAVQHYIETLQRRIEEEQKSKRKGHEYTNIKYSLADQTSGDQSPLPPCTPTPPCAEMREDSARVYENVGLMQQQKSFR
Chain of Luciferin 4-monooxygenase (P08659 whole entry): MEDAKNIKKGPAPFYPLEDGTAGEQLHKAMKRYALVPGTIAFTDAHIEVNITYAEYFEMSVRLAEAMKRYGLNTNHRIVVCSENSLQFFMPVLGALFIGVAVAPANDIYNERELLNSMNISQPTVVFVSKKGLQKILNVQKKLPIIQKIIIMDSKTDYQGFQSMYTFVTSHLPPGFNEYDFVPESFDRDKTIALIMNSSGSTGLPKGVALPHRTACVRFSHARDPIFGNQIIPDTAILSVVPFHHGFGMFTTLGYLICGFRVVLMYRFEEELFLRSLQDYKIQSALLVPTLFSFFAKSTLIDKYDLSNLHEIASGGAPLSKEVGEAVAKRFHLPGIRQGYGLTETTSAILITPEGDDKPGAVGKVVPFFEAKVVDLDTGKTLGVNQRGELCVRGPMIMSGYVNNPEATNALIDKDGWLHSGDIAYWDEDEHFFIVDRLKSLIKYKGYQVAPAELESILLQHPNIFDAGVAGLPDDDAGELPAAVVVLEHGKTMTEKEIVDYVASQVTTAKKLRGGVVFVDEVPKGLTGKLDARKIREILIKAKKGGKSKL
Chain of Adenosylmethionine-8-amino-7-oxononanoate aminotransferase (P9WQ81 whole entry): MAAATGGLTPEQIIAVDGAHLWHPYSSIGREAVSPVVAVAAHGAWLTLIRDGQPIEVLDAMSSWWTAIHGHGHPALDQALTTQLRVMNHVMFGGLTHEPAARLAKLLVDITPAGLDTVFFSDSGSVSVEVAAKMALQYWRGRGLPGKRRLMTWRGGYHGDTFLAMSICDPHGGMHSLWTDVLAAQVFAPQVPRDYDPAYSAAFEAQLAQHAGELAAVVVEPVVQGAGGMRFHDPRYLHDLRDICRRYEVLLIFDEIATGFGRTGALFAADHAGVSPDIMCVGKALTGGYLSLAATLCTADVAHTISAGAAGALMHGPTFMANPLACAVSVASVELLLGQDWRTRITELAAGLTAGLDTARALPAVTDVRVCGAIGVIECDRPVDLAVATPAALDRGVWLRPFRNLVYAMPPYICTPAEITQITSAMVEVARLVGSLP
Chain of ATP-dependent molecular chaperone HSP82 (C4YTQ8 whole entry): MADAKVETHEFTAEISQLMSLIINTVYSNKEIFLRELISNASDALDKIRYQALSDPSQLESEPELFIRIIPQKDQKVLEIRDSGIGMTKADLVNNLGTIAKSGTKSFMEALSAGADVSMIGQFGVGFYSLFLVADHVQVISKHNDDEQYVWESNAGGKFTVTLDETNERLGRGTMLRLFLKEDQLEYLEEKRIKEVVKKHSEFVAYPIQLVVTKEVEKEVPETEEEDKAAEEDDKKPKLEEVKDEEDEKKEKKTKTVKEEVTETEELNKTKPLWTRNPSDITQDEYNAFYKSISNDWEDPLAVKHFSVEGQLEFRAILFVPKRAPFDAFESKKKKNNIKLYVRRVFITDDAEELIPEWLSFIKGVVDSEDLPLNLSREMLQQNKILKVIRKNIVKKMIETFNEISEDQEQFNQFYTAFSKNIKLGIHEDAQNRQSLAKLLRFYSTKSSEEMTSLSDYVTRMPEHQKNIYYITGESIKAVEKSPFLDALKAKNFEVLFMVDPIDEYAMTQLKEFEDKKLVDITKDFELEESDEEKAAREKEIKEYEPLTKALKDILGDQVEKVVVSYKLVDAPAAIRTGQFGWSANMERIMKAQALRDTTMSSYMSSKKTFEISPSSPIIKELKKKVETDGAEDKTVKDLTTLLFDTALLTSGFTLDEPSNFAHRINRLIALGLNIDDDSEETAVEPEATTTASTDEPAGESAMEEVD

CN(C)CCNc1ncnc2c1sc1nc(N3CCCC3)c3c(c12)CC(C)(C)OC3
CC50 (Vero): 17.8 µM (active) | EC50 [1]: 4.02 µM (active) | IC50 (Protein skinhead-1): > 100 µM (inactive) | AC50 [2]: 34.7 µM (active) | AC50 [3]: 9.5 µM (active) | AC50 [4]: 6.55 µM (active)

C/C=C(/C)C(=O)OC(C)(C)[C@@H]1Cc2c(ccc3ccc(=O)oc23)O1 [COLUMBIANADIN]
AC50 [5]: 0.389 µM (active)

C=CC(=O)Nc1cccc(Oc2[nH]cnc3ncc(-c4cnc5ccccc5c4)c2-3)c1
IC50 (Interleukin-8 [6]): 3.39 µM (active) | IC50 (Interleukin-8 [7]): 2.52 µM (active)

O=C(NN=Cc1ccccc1O)NN=Cc1ccccc1O
IC50 [8]: 3.93 µM (active) | IC50 [9]: 10.1 µM (active) | IC50 [10]: 4.05 µM (active)

Oc1c(CN2CCc3ccccc3C2)cc(Cl)c2cccnc12
EC50 [11]: > 160 µM (inactive) | EC50 [12]: 2.95 µM (active) | EC50 (BJ [13]): 8.6 µM (active) | EC50 [14]: 17.7 µM (active) | EC50 (cells [15]): > 350 µM (not active) | EC50 (Streptokinase A): > 150 µM (not active) | EC50 (BJ [16]): 10.9 µM (active) | EC50 [17]: 0.712 µM (active) | EC50 (cells [18]): > 350 µM (not active) | EC50 [19]: 1.03 µM (active) | EC50 [20]: > 180 µM (inactive) | EC50 (HT-1080): 22.2 µM (active) | EC50 [21]: 0.973 µM (active) | EC50 (BJ [22]): 8.45 µM (inconclusive) | EC50 [23]: 6.01 µM (active) | EC50 (Streptococcus): 9.33 µM (active) | IC50 (Nonstructural protein 1): 11.1 µM (active) | AC50 [24]: 7.67 µM (active) | EC50 [25]: > 160 µM (inactive) | AC50 [26]: < 0.1 µM (active)

O=C(CSc1cccc2cccnc12)Nc1cc(C(=O)O)cc(C(=O)O)c1
AC50 [27]: 104 µM (active)

C/C(N)=C(/C#N)C(=O)CSc1nn(-c2ccc(Cl)cc2)c(=S)s1
CC50 [28]: 15.9 µM (active) | IC50 [29]: 155 µM (inactive)
